Laboratory results taken from patent publication US6972296B2, “Carboxylic acid derivatives that inhibit the binding of integrins to their receptors” (Encysive Pharmaceuticals Inc., priority 1999, dated 2005).

Biological target: T1, α4β1 integrin (Homo sapiens, UniProt P05556+P13612)
T1 construct: endogenous in cells; host or cells: Ramos cells
Test: Adhesion of calcein-labeled Ramos cells to CS1 (fibronectin) peptide conjugated ovalbumin
Format: cell-based
Conditions: Ramos cell adhesion to CS1 conjugated ovalbumin
Outline: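 Plates bearing CS1 fibronectin peptide coupled to ovalbumin (0.5 μg/ml coat, 3% BSA block) received calcein-labelled Ramos cells plus compound (100 μM stated) for 30 min at 37 °C. Buffer was TBS pH 7.5 with 1 mM Mg2+, Ca2+, Mn2+; bound cells quantified by fluorescence after lysis; […].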

[1] = Table 7, dose required to give 50% inhibition
[2] = Table 5, dose required to give 50% inhibition

T1 sequence (P13612 34-1032): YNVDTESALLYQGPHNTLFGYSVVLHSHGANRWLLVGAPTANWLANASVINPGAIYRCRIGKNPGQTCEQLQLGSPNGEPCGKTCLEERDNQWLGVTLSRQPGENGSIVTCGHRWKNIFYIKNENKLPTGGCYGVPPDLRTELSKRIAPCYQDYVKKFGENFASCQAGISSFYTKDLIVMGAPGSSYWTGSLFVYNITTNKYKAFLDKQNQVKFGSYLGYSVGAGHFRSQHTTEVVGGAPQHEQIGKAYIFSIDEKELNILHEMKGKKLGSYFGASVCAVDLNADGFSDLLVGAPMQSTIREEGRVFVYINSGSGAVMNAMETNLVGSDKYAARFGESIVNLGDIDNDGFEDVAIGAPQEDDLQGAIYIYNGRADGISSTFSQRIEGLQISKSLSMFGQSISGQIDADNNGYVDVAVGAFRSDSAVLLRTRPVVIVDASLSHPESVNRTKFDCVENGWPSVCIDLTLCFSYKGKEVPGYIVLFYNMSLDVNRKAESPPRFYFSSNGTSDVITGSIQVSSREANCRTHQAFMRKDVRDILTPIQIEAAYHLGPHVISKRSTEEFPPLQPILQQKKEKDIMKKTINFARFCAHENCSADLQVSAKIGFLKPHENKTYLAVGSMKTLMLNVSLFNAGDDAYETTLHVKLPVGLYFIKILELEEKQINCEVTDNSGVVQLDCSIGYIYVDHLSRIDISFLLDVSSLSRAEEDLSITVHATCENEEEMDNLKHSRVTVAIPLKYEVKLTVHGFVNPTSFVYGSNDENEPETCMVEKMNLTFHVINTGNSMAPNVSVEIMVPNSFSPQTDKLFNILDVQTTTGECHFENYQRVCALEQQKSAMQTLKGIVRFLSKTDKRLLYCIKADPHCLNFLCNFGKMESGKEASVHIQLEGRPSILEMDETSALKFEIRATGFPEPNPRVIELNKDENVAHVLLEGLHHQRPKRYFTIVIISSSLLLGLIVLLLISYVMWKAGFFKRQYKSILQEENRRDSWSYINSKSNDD
T1 sequence (P05556 21-798): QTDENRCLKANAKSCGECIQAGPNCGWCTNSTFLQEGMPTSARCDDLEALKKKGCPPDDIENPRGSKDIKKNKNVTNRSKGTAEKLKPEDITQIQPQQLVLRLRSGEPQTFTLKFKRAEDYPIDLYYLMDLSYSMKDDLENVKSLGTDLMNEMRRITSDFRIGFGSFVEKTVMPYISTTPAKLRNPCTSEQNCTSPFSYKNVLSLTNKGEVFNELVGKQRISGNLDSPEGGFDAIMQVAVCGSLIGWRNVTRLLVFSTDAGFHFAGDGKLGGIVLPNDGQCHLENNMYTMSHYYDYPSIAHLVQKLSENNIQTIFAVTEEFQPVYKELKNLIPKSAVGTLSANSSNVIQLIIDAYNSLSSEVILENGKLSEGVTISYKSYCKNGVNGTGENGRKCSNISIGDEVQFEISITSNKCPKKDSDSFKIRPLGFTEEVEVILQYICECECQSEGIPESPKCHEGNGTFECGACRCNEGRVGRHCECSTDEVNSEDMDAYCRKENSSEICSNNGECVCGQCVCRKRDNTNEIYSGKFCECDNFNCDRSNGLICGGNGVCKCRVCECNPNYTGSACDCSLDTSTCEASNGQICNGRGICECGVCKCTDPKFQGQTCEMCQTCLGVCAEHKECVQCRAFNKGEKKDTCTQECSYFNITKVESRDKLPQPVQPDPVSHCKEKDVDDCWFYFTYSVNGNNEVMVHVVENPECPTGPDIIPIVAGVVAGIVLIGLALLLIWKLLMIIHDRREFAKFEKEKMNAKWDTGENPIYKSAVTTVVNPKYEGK

SMILES: Cc1cccc(Cl)c1Cn1c2c(c(O)c(NC(=O)N[C@@H](CC(=O)O)c3cccc(OC(C)C)c3)c1=O)CCC2
- IC50 [1]: 0.01 µM

SMILES: Cc1ccc([C@H](CC(=O)O)NC(=O)Nc2cccn(Cc3ccc(C(C)(C)C)cc3)c2=O)cc1
- IC50 (Table 4, 30 minutes at 37° C.): 6 µM

SMILES: COc1ccccc1Cn1cccc(NC(=O)N[C@@H](CC(=O)O)c2ccc3c(c2)OCO3)c1=O
- IC50 (Table 4, 30 minutes at 37° C.): 0.5 µM

SMILES: Cc1ccc([C@H](CC(=O)O)NC(=O)Nc2c(O)cc(C)n(Cc3ccccc3Cl)c2=O)cc1 [(3S)-3-{[({1-[(2-chlorophenyl)methyl]-4-hydroxy-6-methyl-2-oxo-1,2-dihydro-3-pyridinyl}amino)carbonyl]amino}-3-(4-methylphenyl)propanoic acid]
- IC50 (Table 3, 30 minutes at 37° C.): 0.015 µM

SMILES: Cc1ccc([C@H](CC(=O)O)NC(=O)Nc2cccn(CC(=O)Nc3ccccc3O)c2=O)cc1
- IC50 (Table 4, 30 minutes at 37° C.): > 10 µM

SMILES: CCOc1cccc(Cl)c1Cn1cc(C)c(O)c(NC(=O)NC(CC(=O)O)c2ccc(S(C)(=O)=O)cc2)c1=O (stereo not drawn)
- IC50 [1]: 0.008 µM

SMILES: CCOc1cccc([C@H](CC(=O)O)NC(=O)Nc2c(O)c(C)c(C)n(Cc3ccccc3Cl)c2=O)c1
- IC50 (Table 6, 30 minutes at 37° C.): 0.03 µM

SMILES: Cc1cn(Cc2ccccc2Cl)c(=O)c(NC(=O)N[C@@H](CC(=O)O)c2ccc3c(c2)CCC3)c1O
- IC50 [1]: 0.018 µM

SMILES: Cc1ccc([C@H](CC(=O)O)NC(=O)Nc2cccn(Cc3csc(C)n3)c2=O)cc1
- IC50 (Table 4, 30 minutes at 37° C.): 1 µM

SMILES: O=C(O)C[C@H](NC(=O)Nc1c(O)c2c(n(Cc3ccccc3Cl)c1=O)CCC2)c1ccc(C2CC2)cc1
- IC50 [1]: 0.025 µM

SMILES: Cc1ccc([C@H](CC(=O)O)NC(=O)Nc2c(O)c(C)nn(Cc3ccccc3Cl)c2=O)cc1
- IC50 (Table 6, 30 minutes at 37° C.): 0.018 µM

SMILES: Cc1ccc([C@H](CC(=O)O)NC(=O)Nc2cccn(Cc3cc(NS(C)(=O)=O)ccc3Br)c2=O)cc1
- IC50 (Table 4, 30 minutes at 37° C.): 0.25 µM

SMILES: Cc1cn(Cc2ccccc2Cl)c(=O)c(NC(=O)N[C@@H](CC(=O)O)c2cccc3ccn(C)c23)c1O
- IC50 [1]: 0.03 µM

SMILES: Cc1ccc([C@H](CC(=O)O)NC(=O)Nc2c(O)ccn(Cc3ccccc3OC(F)F)c2=O)cc1
- IC50 [2]: 0.075 µM

SMILES: Cc1ccc([C@H](CC(=O)O)NC(=O)Nc2c(O)c(C)cn([C@H](C)c3ccccc3)c2=O)cc1
- IC50 [2]: 4 µM

SMILES: CCCc1cn(Cc2c(Cl)cccc2OCC)c(=O)c(NC(=O)N[C@@H](CC(=O)O)c2cccc(OCC)c2)c1O
- IC50 [1]: 0.006 µM

SMILES: Cc1ccc([C@H](CC(=O)O)NC(=O)Nc2cccn(Cc3ccccc3Br)c2=O)cc1
- IC50 (Table 4, 30 minutes at 37° C.): 0.05 µM

SMILES: COc1ccc(C(CC(=O)O)NC(=O)Nc2c(O)ccn(Cc3ccccc3Cl)c2=O)c2ccccc12 (stereo not drawn)
- IC50 (Table 6, 30 minutes at 37° C.): 0.16 µM

SMILES: Cc1ccc([C@H](CC(=O)O)NC(=O)Nc2c(O)c3c(n(Cc4c(C)cccc4Cl)c2=O)CCC3)cc1
- IC50 (Table 6, 30 minutes at 37° C.): 0.02 µM

SMILES: COc1cc([C@H](CC(=O)O)NC(=O)Nc2c(O)ccn(Cc3ccccc3Cl)c2=O)cc(OC)c1C [(3S)-3-[({[1-(2-chlorobenzyl)-4-hydroxy-2-oxo-1,2-dihydropyridin-3-yl]amino}carbonyl)amino]-3-(3,5-dimethoxy-4-methylphenyl)propanoic acid]
- IC50 [2]: 0.003 µM

SMILES: COc1ccc([C@H](CC(=O)O)NC(=O)Nc2c(O)c(C)cn(Cc3ccccc3Cl)c2=O)cc1 [(3S)-3-[({[1-(2-chlorobenzyl)-4-hydroxy-5-methyl-2-oxo-1,2-dihydropyridin-3-yl]amino}carbonyl)amino]-3-(4-methoxyphenyl)propanoic acid]
- IC50 (Table 6, 30 minutes at 37° C.): 0.004 µM

SMILES: COc1ccc2cc(C(CC(=O)O)NC(=O)Nc3c(O)ccn(Cc4ccccc4Cl)c3=O)ccc2c1 (stereo not drawn)
- IC50 (Table 6, 30 minutes at 37° C.): 0.015 µM

SMILES: Cc1cc(C)cc([C@H](CC(=O)O)NC(=O)Nc2c(O)ccn(Cc3ccccc3Cl)c2=O)c1 [(3S)-3-{[({1-[(2-chlorophenyl)methyl]-4-hydroxy-2-oxo-1,2-dihydro-3-pyridinyl}amino)carbonyl]amino}-3-(3,5-dimethylphenyl)propanoic acid]
- IC50 (Table 3, 30 minutes at 37° C.): 0.015 µM

SMILES: Cc1cn(Cc2c(C)cccc2Cl)c(=O)c(NC(=O)N[C@@H](CC(=O)O)c2ccc3c(ccn3C)c2)c1O
- IC50 [1]: 0.004 µM

SMILES: O=C(O)C[C@@H](Cc1ccccc1Cl)NC(=O)Nc1c(O)ccn(Cc2ccccc2Cl)c1=O
- IC50 (Table 6, 30 minutes at 37° C.): 0.7 µM

SMILES: COCCOc1cccc([C@H](CC(=O)O)NC(=O)Nc2c(O)ccn(Cc3ccccc3Cl)c2=O)c1 [(3S)-3-[({[1-(2-chlorobenzyl)-4-hydroxy-2-oxo-1,2-dihydropyridin-3-yl]amino}carbonyl)amino]-3-[3-(2-methoxyethoxy)phenyl]propanoic acid]
- IC50 [2]: 0.003 µM

SMILES: Cc1ccc(Cn2cc(C)c(O)c(NC(=O)N[C@@H](CC(=O)O)c3ccc(C)cc3)c2=O)cc1
- IC50 (Table 6, 30 minutes at 37° C.): 0.15 µM

SMILES: Cc1cccc(-c2cccc([C@H](CC(=O)O)NC(=O)Nc3c(O)c(C)cn(Cc4ccccc4Cl)c3=O)c2)c1
- IC50 [1]: 0.018 µM

SMILES: Cc1ccc([C@H](CC(=O)O)NC(=O)Nc2cccn(Cc3ccccc3Cl)c2=O)cc1
- IC50 (Table 4, 30 minutes at 37° C.): 0.1 µM

SMILES: COc1cc([C@H](CC(=O)O)NC(=O)Nc2c(O)c(C)c(C)n(Cc3c(C)cccc3Cl)c2=O)ccc1C
- IC50 [2]: 0.025 µM

SMILES: CCOc1cccc(Cl)c1Cn1c2c(c(O)c(NC(=O)N[C@@H](CC(=O)O)c3ccc4cc(OC)ccc4c3)c1=O)CCC2
- IC50 [1]: 0.002 µM

SMILES: CCc1cccc([C@H](CC(=O)O)NC(=O)Nc2c(O)ccn(Cc3ccccc3Cl)c2=O)c1
- IC50 [2]: 0.015 µM

SMILES: O=C(O)C[C@H](NC(=O)Nc1cccn(CCc2cccs2)c1=O)c1ccc2c(c1)OCO2
- IC50 (Table 4, 30 minutes at 37° C.): 15 µM

SMILES: COc1ccc(C(C)=O)cc1Cn1ccc(O)c(NC(=O)N[C@@H](CC(=O)O)c2ccc(C)cc2)c1=O
- IC50 (Table 6, 30 minutes at 37° C.): 0.033 µM

SMILES: Cc1ccc(C(CC(=O)O)NC(=O)Nc2c(O)ccn(Cc3ccccc3Cl)c2=O)o1 (stereo not drawn)
- IC50 [2]: 0.025 µM

SMILES: Cc1ccc([C@H](CC(=O)O)NC(=O)Nc2c(C)ccn(Cc3ccccc3)c2=O)cc1
- IC50 (Table 3, 30 minutes at 37° C.): 0.03 µM

SMILES: Cc1cn(Cc2ccccc2Cl)c(=O)c(NC(=O)N[C@@H](CC(=O)O)c2ccccc2F)c1O
- IC50 [1]: 0.01 µM

SMILES: Cc1ccc([C@H](CC(=O)O)NC(=O)Nc2cccn(Cc3ccc(Cl)s3)c2=O)cc1
- IC50 (Table 4, 30 minutes at 37° C.): 1.3 µM

SMILES: Cc1ccc([C@H](CC(=O)O)NC(=O)Nc2c(C)ccn(Cc3ccccc3Cl)c2=O)cc1 [(3S)-3-{[({1-[(2-chlorophenyl)methyl]-4-methyl-2-oxo-1,2-dihydro-3-pyridinyl}amino)carbonyl]amino}-3-(4-methylphenyl)propanoic acid]
- IC50 (Table 3, 30 minutes at 37° C.): 0.005 µM

SMILES: Cc1cccc([C@H](CC(=O)O)NC(=O)Nc2cccn(Cc3ccccc3Cl)c2=O)c1
- IC50 (Table 4, 30 minutes at 37° C.): 0.2 µM

SMILES: COc1cc([C@H](CC(=O)O)NC(=O)Nc2c(O)c(C)cn(Cc3c(Cl)cccc3OC)c2=O)ccc1C
- IC50 (Table 6, 30 minutes at 37° C.): 0.006 µM

SMILES: Cc1cn(Cc2ccccc2Cl)c(=O)c(NC(=O)NC(CC(=O)O)c2ccc(-c3ccccc3)cc2)c1O (stereo not drawn)
- IC50 (Table 6, 30 minutes at 37° C.): 0.13 µM

SMILES: COc1cc([C@H](CC(=O)O)NC(=O)Nc2c(O)ccn(Cc3ccccc3Cl)c2=O)ccc1C [(3S)-3-[({[1-(2-chlorobenzyl)-4-hydroxy-2-oxo-1,2-dihydropyridin-3-yl]amino}carbonyl)amino]-3-(3-methoxy-4-methylphenyl)propanoic acid]
- IC50 [2]: 0.003 µM

SMILES: COc1ccc([C@H](CC(=O)O)NC(=O)Nc2c(C)ccn(Cc3ccccc3Cl)c2=O)cc1 [(3S)-3-{[({1-[(2-chlorophenyl)methyl]-4-methyl-2-oxo-1,2-dihydro-3-pyridinyl}amino)carbonyl]amino}-3-[4-(methyloxy)phenyl]propanoic acid]
- IC50 (Table 3, 30 minutes at 37° C.): 0.003 µM

SMILES: O=C(O)C[C@H](NC(=O)Nc1c(O)c2c(n(Cc3ccccc3Cl)c1=O)CCC2)c1ccc2c(c1)CCC2
- IC50 [1]: 0.008 µM

SMILES: COc1cccc(Cl)c1Cn1cccc(NC(=O)N[C@@H](CC(=O)O)c2ccc(C)cc2)c1=O [(3S)-3-[({[1-(2-chloro-6-methoxybenzyl)-2-oxo-1,2-dihydropyridin-3-yl]amino}carbonyl)amino]-3-(4-methylphenyl)propanoic acid]
- IC50 [2]: 0.1 µM

SMILES: O=C(O)C[C@H](NC(=O)Nc1cccn(Cc2cccs2)c1=O)c1ccccc1
- IC50 (Table 4, 30 minutes at 37° C.): 1 µM

SMILES: COc1ccc([C@H](CC(=O)O)NC(=O)Nc2cccn(Cc3ccccc3Br)c2=O)cc1C
- IC50 (Table 4, 30 minutes at 37° C.): 0.2 µM

SMILES: O=C(O)C[C@@H](Cc1ccccn1)NC(=O)Nc1c(O)ccn(Cc2ccccc2Cl)c1=O
- IC50 [2]: 0.225 µM

SMILES: CCCc1cn(Cc2c(Cl)cccc2OC)c(=O)c(NC(=O)N[C@@H](CC(=O)O)c2ccc(C)c(OC)c2)c1O
- IC50 (Table 6, 30 minutes at 37° C.): 0.015 µM

SMILES: CCOc1cccc(Cl)c1Cn1cc(C)c(O)c(NC(=O)N[C@@H](CC(=O)O)c2ccc3cc(OC)ccc3c2)c1=O [(3S)-3-[({[1-(2-chloro-6-ethoxybenzyl)-4-hydroxy-5-methyl-2-oxo-1,2-dihydropyridin-3-yl]amino}carbonyl)amino]-3-(6-methoxy-2-naphthyl)propanoic acid]
- IC50 [1]: 0.003 µM

SMILES: O=C(O)C[C@H](NC(=O)Nc1ccc(=O)n(Cc2ccccc2)c1)c1ccc2c(c1)OCO2
- IC50 (Table 4, 30 minutes at 37° C.): 0.5 µM

SMILES: Cc1cn(Cc2ccccc2Cl)c(=O)c(NC(=O)N[C@@H](CC(=O)O)c2cccc(OCC(F)(F)F)c2)c1O
- IC50 (Table 6, 30 minutes at 37° C.): 0.015 µM

SMILES: Cc1ccccc1-c1cccc([C@H](CC(=O)O)NC(=O)Nc2c(O)c(C)cn(Cc3ccccc3Cl)c2=O)c1
- IC50 [1]: 0.02 µM

SMILES: CCOc1cccc([C@H](CC(=O)O)NC(=O)Nc2c(O)c(C)cn(Cc3c(Cl)cccc3OCC)c2=O)c1 [(3S)-3-[({[1-(2-chloro-6-ethoxybenzyl)-4-hydroxy-5-methyl-2-oxo-1,2-dihydropyridin-3-yl]amino}carbonyl)amino]-3-(3-ethoxyphenyl)propanoic acid]
- IC50 (Table 6, 30 minutes at 37° C.): 0.002 µM

SMILES: Cc1ccc([C@H](CC(=O)O)NC(=O)Nc2c(O)c(C)cn(Cc3cc(S(=O)(=O)N4CCCC4)ccc3Cl)c2=O)cc1
- IC50 [1]: 0.015 µM

SMILES: Cc1ccc([C@H](CC(=O)O)NC(=O)Nc2c(O)c(C)cn(Cc3c(F)cccc3C(F)(F)F)c2=O)cc1
- IC50 (Table 6, 30 minutes at 37° C.): 0.1 µM

SMILES: CCOc1cccc(Cl)c1Cn1c(C)c(C)c(O)c(NC(=O)N[C@@H](CC(=O)O)c2ccc(C)cc2)c1=O
- IC50 [1]: 0.004 µM

SMILES: CCCc1ccn(Cc2ccccc2)c(=O)c1NC(=O)N[C@@H](CC(=O)O)c1ccc2c(c1)OCO2 [(3S)-3-(1,3-benzodioxol-5-yl)-3-[({[2-oxo-1-(phenylmethyl)-4-propyl-1,2-dihydro-3-pyridinyl]amino}carbonyl)amino]propanoic acid]
- IC50 (Table 3, 30 minutes at 37° C.): 0.01 µM

SMILES: Cc1ccc([C@H](CC(=O)O)NC(=O)Nc2cccn(Cc3ccc(F)cc3Cl)c2=O)cc1
- IC50 (Table 4, 30 minutes at 37° C.): 0.35 µM
